The subject of assay [1] is Rhizoctonia solani. The experiment in a line: Rhizoctonia solani (rice sheath blight/potato black scurf) in vitro test, radial growth on Potato Dextrose Agar. The class given is cell-based. The conditions noted are these: 168 h, 300 ppm, seven days, 25° C., read-out: % control compared to the untreated check (radial growth).
For assay [2], the system named is Colletotrichum capsici. Description: Colletotrichum capsici (anthracnose) in vitro test, radial growth on Potato Dextrose Agar. The note with it: Colletotrichum truncatum, 168 h; 300 ppm; seven days, 25° C.; read-out: % control compared to the untreated check (radial growth). The class given is cell-based.
Assay [3] relates to Alternaria solani. The experiment in a line: Greenhouse Alternaria solani test in tomato, preventive. The class given is in vivo. The conditions noted are these: 24 h, tomato plants sprayed one day before inoculation, read-out: Efficacy (% control), disease severity vs untreated check. The protocol:
Compounds were dissolved in 2% DMSO/Acetone & then mixed with water to calibrated spray volume of 50 ml. This 50 ml spray solution was poured into the spray bottles for further applications. To test the preventive activity of compounds, healthy young Tomato plants raised in the greenhouse were sprayed with active compound preparation at the stated application rates inside the spray cabinets using hallowcone nozzles. One day after treatment, the plants were inoculated with spore suspension (2% Malt) containing 0.24×10^6 Alternaria solani inoculum. The inoculated plants were then kept in greenhouse chamber at 22-24° C. temperature and 90-95% relative humidity for disease expression. […] Efficacy (% control) of the compounds was calculated by comparing the disease rating in the treatment with untreated control. The sprayed plants were also assessed for compound's phytotoxic effects by recording symptoms like necrosis, chlorosis and stunting.

In assay [4] the test system is Alternaria solani. The experiment in a line: Alternaria solani (early blight of tomato/potato) in vitro test, radial growth on Potato Dextrose Agar. The note with it: 168 h, 300 ppm, seven days, 25° C., read-out: % control compared to the untreated check (radial growth). The class given is cell-based.
Assay [5] relates to Fusarium culmorum. Description: Fusarium culmorum (foot rot of cereals) in vitro test, radial growth on Potato Dextrose Agar. The class given is cell-based. The note with it: Fusarium culmorum, 168 h, read-out: % control compared to the untreated check (radial growth).
The test system of assay [6] is Pyricularia oryzae. Description: microbe, parasite or virus in culture. The class given is cell-based. The note with it: 168 h, read-out: % control compared to the untreated check (radial growth).
Assay [7] has as its system Septoria lycopersici. The experiment in a line: Septoria lycopersici (leaf spot of tomato) in vitro test, radial growth on Potato Dextrose Agar. The note with it: 168 h, seven days, 25° C., read-out: % control compared to the untreated check (radial growth). The class given is cell-based.
Assay [8] has as its system Botrytis cinerea. Description: Botrytis cinerea (gray mold) in vitro test, radial growth on Potato Dextrose Agar. The conditions noted are these: 168 h, 300 ppm, seven days, 22° C., read-out: % (control) compared to the untreated check (radial growth). The class given is cell-based.
Assay [9] deals with Botrytis cinera. The experiment in a line: Greenhouse Botrytis cinera test in tomato, preventive. The conditions noted are these: 24 h, plants sprayed one day before inoculation, read-out: Efficacy (% control), disease severity vs untreated check. The class given is in vivo.
Assay [10] relates to Fusarium culmorum. The experiment in a line: Greenhouse Fusarium culmorum test in wheat, preventive. The conditions noted are these: 24 h, read-out: Efficacy (% control), disease severity vs untreated check. The class given is in vivo. The protocol:
Compounds were dissolved in 2% DMSO/Acetone & then mixed with water to calibrated spray volume of 50 ml. This 50 ml spray solution was poured into the spray bottles for further applications.
To test the preventive activity of compounds, healthy young wheat plants raised in the greenhouse were sprayed with active compound preparation at the stated application rates inside the spray cabinets using hallowcone nozzles. One day after treatment, the plants were inoculated with spore suspension (2% Malt) containing 2×10^6 Fusarium culmorum inoculum. The inoculated plants were then kept in greenhouse chamber at 24° C. temperature and 80-90% relative humidity for disease expression.
A visual assessment of compound's performance was carried by rating the disease severity (0-100% scale) on treated plants on 3, 7, 10 and 15 days after application. Efficacy (% control) of the compounds was calculated by comparing the disease rating in the treatment with untreated control. The sprayed plants were also assessed for compound's phytotoxic effects by recording symptoms like necrosis, chlorosis and stunting.

Take `CCN(C)C=Nc1cc(C)c(Cc2ccc(F)cc2F)cc1C` [Compound 161, N′-(4-(2,4-difluorobenzyl)-2,5-dimethylphenyl)-N-ethyl-N-methylformimidamide]: the inhibition of growth at 300 ppm in assay [1] is more than 80%; in assay [2], more than 80%; in assay [4], more than 75%; in [5], 75%; in [6], more than 75%; in assay [7] it was more than 70%. For the same molecule, the inhibition of growth at 300 ppm in assay [8] was more than 80%. Also, the pest or weed control at 500 ppm in assay [3] is 70 to 100%.
Take `CCN(C)C=Nc1cc(C)c(Cc2ccc(C(F)(F)F)cc2)cc1C` [Compound 97, N′-(2,5-dimethyl-4-(4-(trifluoromethyl)benzyl)phenyl)-N-ethyl-N-methylformimidamide]: the pest or weed control at 500 ppm in assay [3] lay within 70 to 100%.
On to `CCN(C)C=Nc1cc(F)c(Cc2ccc(C)cc2)cc1C` [Compound 175, N-ethyl-N′-(5-fluoro-2-methyl-4-(4-methylbenzyl)phenyl)-N-methylformimidamide], for which the inhibition of growth at 300 ppm is more than 80% in [1]; more than 80% in assay [2]; more than 75% in assay [4]; 75% in [5]; more than 75% in assay [6]; more than 70% in assay [7]. Also, the inhibition of growth at 300 ppm in [8] was more than 80%. Besides, in [3], the pest or weed control at 500 ppm lay in the range of 70 to 100%.
With `CCN(C)C=Nc1cc(C)c(Cc2ccc(SC)cc2)cc1C` [Compound 8, N′-(2,5-dimethyl-4-(4-(methylthio)benzyl)phenyl)-N-ethyl-N-methylformimidamide], the inhibition of growth at 300 ppm is more than 80% in [1]; more than 80% in assay [2]; more than 75% in [4]; more than 75% in assay [6]; more than 70% in assay [7]; more than 80% in assay [8]. Moreover, the pest or weed control at 500 ppm in assay [3] is 70 to 100%.
`CCN(C)C=Nc1cc(C)c(Cc2cccc([N+](=O)[O-])c2)cc1Cl` [Compound 71, N′-(2-chloro-5-methyl-4-(3-nitrobenzyl)phenyl)-N-ethyl-N-methylformimidamide]: the inhibition of growth at 300 ppm in [1] is more than 80%; in [2] it was more than 80%; in assay [4], more than 75%; in assay [5], 75%; in assay [6], more than 75%; in assay [7], more than 70%. Besides, the inhibition of growth at 300 ppm in assay [8] was more than 80%. Also, the pest or weed control at 500 ppm in assay [3] was 70 to 100%.
Consider `CCN(C)C=Nc1cc(C)c(Cc2ccc(C#N)cc2)cc1Cl` [Compound 68, N′-(2-chloro-4-(4-cyanobenzyl)-5-methylphenyl)-N-ethyl-N-methylformimidamide], for which the inhibition of growth at 300 ppm in [1] is more than 80%; in assay [4], more than 75%; in [5] it was 75%; in [6] it was more than 75%; in [7] it was more than 70%. In addition, the pest or weed control at 500 ppm in assay [3] was in the range of 70 to 100%.
Regarding `CCN(C)C=Nc1cc(C)c(Cc2ccc(Br)cc2)cc1Cl` [Compound 22, N′-(4-(4-bromobenzyl)-2-chloro-5-methylphenyl)-N-ethyl-N-methylformimidamide], the inhibition of growth at 300 ppm in [1] is more than 80%; in assay [2], more than 80%; in [4], more than 75%; in assay [5] it was 75%; in assay [6], more than 75%; in assay [7], more than 70%. For the same molecule, the inhibition of growth at 300 ppm in [8] was more than 80%. For the same molecule, the pest or weed control at 500 ppm in assay [9] and in assay [10] was 70 to 100% in each case.
As to `Cc1cc(N=CN2CCOCC2)c(C)cc1Cc1cccc(Br)c1F` [Compound 36, N-(4-(3-bromo-2-fluorobenzyl)-2,5-dimethylphenyl)-1-morpholinomethanimine], the inhibition of growth at 300 ppm is more than 80% in assay [1] and more than 75% in [6]. For the same molecule, the pest or weed control at 500 ppm in [3] lay within 70 to 100%.
Take `CCN(C)C=Nc1cc(C)c(Cc2ccc(Cl)cc2)cc1C` [Compound 7, N′-(4-(4-chlorobenzyl)-2,5-dimethylphenyl)-N-ethyl-N-methylformimidamide]: the inhibition of growth at 300 ppm in assay [1] was more than 80%; in assay [2], more than 80%; in [4], more than 75%; in assay [5], 75%; in [6], more than 75%; in [7] it was more than 70%. Further, in assay [8], the inhibition of growth at 300 ppm is more than 80%. Further, the pest or weed control at 500 ppm in assay [9] and in [10] was 70 to 100% each time.
Regarding `CCN(C)C=Nc1cc(C)c(Cc2cccc(Cl)c2Cl)cc1Cl` [Compound 128, N′-(2-chloro-4-(2,3-dichlorobenzyl)-5-methylphenyl)-N-ethyl-N-methylformimidamide], the inhibition of growth at 300 ppm in assay [1] was more than 80%; in assay [2] it was more than 80%; in assay [4], more than 75%; in [6], more than 75%; in assay [7], more than 70%; in assay [8] it was more than 80%. For the same molecule, the pest or weed control at 500 ppm in assay [3] is 70 to 100%.
Take `CCN(C)C=Nc1cc(C)c(Cc2ccccc2[N+](=O)[O-])cc1C` [Compound 50, N′-(2,5-dimethyl-4-(2-nitrobenzyl)phenyl)-N-ethyl-N-methylformimidamide]: the inhibition of growth at 300 ppm in assay [1] was more than 80%; in [2], more than 80%; in assay [4], more than 75%; in [5] it was 75%; in assay [6], more than 75%; in [7], more than 70%. Further, the inhibition of growth at 300 ppm in assay [8] is more than 80%. Besides, the pest or weed control at 500 ppm in [3] was 70 to 100%.
As for `CCN(C)C=Nc1cc(C)c(Cc2cc(F)ccc2Cl)cc1Cl` [Compound 178, N′-(2-chloro-4-(2-chloro-5-fluorobenzyl)-5-methylphenyl)-N-ethyl-N-methylformimidamide], the inhibition of growth at 300 ppm is more than 80% in assay [1]; more than 80% in [2]; more than 75% in assay [4]; 75% in [5]; more than 75% in assay [6]; more than 70% in assay [7]. Besides, in assay [8], the inhibition of growth at 300 ppm was more than 80%. In addition, the pest or weed control at 500 ppm in assay [3] fell in the range of 70 to 100%.
For the molecule `CCN(C)C=Nc1cc(C)c(Cc2cc(F)cc(Cl)c2)cc1Cl` [Compound 176, N′-(2-chloro-4-(3-chloro-5-fluorobenzyl)-5-methylphenyl)-N-ethyl-N-methylformimidamide], the inhibition of growth at 300 ppm in assay [1] is more than 80%; in [2], more than 80%; in assay [4], more than 75%; in assay [5], 75%; in assay [6] it was more than 75%; in [7] it was more than 70%. In [8], the inhibition of growth at 300 ppm is more than 80%. Further, in assay [3], the pest or weed control at 500 ppm is 70 to 100%.
Regarding `CCN(C)C=Nc1cc(C)c(Cc2ccccc2C#N)cc1C` [Compound 115, N′-(4-(2-cyanobenzyl)-2,5-dimethylphenyl)-N-ethyl-N-methylformimidamide], the inhibition of growth at 300 ppm is more than 80% in assay [1], more than 80% in assay [2], more than 75% in assay [4] and more than 75% in [6]. Further, the pest or weed control at 500 ppm in assay [3] fell in the range of 70 to 100%.
As for `CCN(C)C=Nc1cc(F)c(Cc2ccccc2Cl)cc1C` [Compound 174, N′-(4-(2-chlorobenzyl)-5-fluoro-2-methylphenyl)-N-ethyl-N-methylformimidamide], the inhibition of growth at 300 ppm is more than 80% in [1]; more than 80% in assay [2]; more than 75% in assay [4]; 75% in assay [5]; more than 75% in assay [6]; more than 70% in assay [7]. Moreover, the inhibition of growth at 300 ppm in assay [8] is more than 80%. In assay [3], the pest or weed control at 500 ppm lay in the range of 70 to 100%.

For the origin of these results see patent US11155517B2, “4-substituted phenylamine derivatives and their use to protect crops by fighting undesired phytopathogenic micoorganisms” (PI INDUSTRIES LTD., priority 2016, dated 2021).
